How the values were obtained:
[1] = Solubility of compound; type: physicochemical
[2] = Volume of distribution at steady state in Sprague-Dawley rat at 2 mg/kg, iv by LC-MS/MS method; type: ADME, organism-based; details: in vivo, read-out: Vdss
Mus musculus [3] = assay: Cmax in CD1 mouse at 2 mg/kg, iv measured at 5 mins by LC-MS/MS method; type: ADME, organism-based; parameters: dose 2 mg/kg, route intravenous; details: in vivo
Mus musculus [4] = assay: Oral bioavailability in CD1 mouse at 10 mg/kg by LC-MS/MS method; type: ADME, organism-based; details: in vivo
Mus musculus [5] = assay: Cmax in CD1 mouse at 10 mg/kg, po measured at 5 mins by LC-MS/MS method; type: ADME, organism-based; parameters: dose 10 mg/kg, route oral; details: in vivo
[6] = Apparent permeability across apical to basolateral side in human Caco2 cells; type: ADME, cell-based; details: caco-2
[7] = Apparent permeability across basolateral to apical side in human Caco2 cells; type: ADME, cell-based; details: caco-2
[8] = AUC (0 to infinity) in Sprague-Dawley rat at 10 mg/kg, po by LC-MS/MS method; type: ADME, organism-based; parameters: dose 10 mg/kg, route oral, time infinity; details: in vivo
[9] = Permeability of the compound by PAMPA; type: ADME
Rattus norvegicus [10] = assay: Cmax in Sprague-Dawley rat at 2 mg/kg, iv measured at 5 mins by LC-MS/MS method; type: ADME, organism-based; parameters: dose 2 mg/kg, route intravenous; details: in vivo
[11] = AUC (0 to infinity) in Sprague-Dawley rat at 2 mg/kg, iv by LC-MS/MS method; type: ADME, organism-based; parameters: dose 2 mg/kg, time infinity, route intravenous; details: in vivo
Rattus norvegicus [12] = assay: Cmax in Sprague-Dawley rat at 10 mg/kg, po measured at 5 mins by LC-MS/MS method; type: ADME, organism-based; parameters: dose 10 mg/kg, route oral; details: in vivo
Rattus norvegicus [13] = assay: Oral bioavailability in Sprague-Dawley rat at 10 mg/kg by LC-MS/MS method; type: ADME, organism-based; details: in vivo

solubility [1]	Vd [2]	AUC(0-inf) [8]	Cmax (Rattus norvegicus [10])	AUC(0-inf) [11]	Cmax (Rattus norvegicus [12])	F (Rattus norvegicus [13])	SMILES	Cmax (Mus musculus [3])	F (Mus musculus [4])	Cmax (Mus musculus [5])	Papp [6]	Papp [7]	permeability [9]
< 1 µg/mL	–	–	–	–	–	–	COc1ccc(S(=O)(=O)c2cnc3ccc(OC)cc3c2N2CCC3(CC2)OCCO3)cc1	–	–	–	–	–	–
–	0.7 L/kg	7540 ng·h/mL	2587 ng/mL	3160 ng·h/mL	1980 ng/mL	48%	CS(=O)(=O)N1CCN(C(=O)c2cnc3ccc(F)cc3c2-c2ccc(C3(C#N)CC3)cc2)CC1	1997 ng/mL	76%	1530 ng/mL	5.76 ×10⁻⁶ cm/s	22.4 ×10⁻⁶ cm/s	388 ×10⁻⁶ cm/s
–	–	–	–	–	–	–	CS(=O)(=O)N1CCN(C(=O)c2cnc3ccc(F)cc3c2N2CCC(C#N)(c3ccccc3)CC2)CC1	2350 ng/mL	44%	1234 ng/mL	11.4 ×10⁻⁶ cm/s	17.2 ×10⁻⁶ cm/s	725 ×10⁻⁶ cm/s

Reference: ChEMBL document CHEMBL4184337, “Discovery of Orally Bioavailable, Quinoline-Based Aldehyde Dehydrogenase 1A1 (ALDH1A1) Inhibitors with Potent Cellular Activity” (J Med Chem, 2018)
